Laboratory results published in ChEMBL document CHEMBL4765362, “Thirty Years of HDAC Inhibitors: 2020 Insight and Hindsight” (J Med Chem, 2020).
pIC50: −log10 of the molar value.

Molecular target: T1, Polyamine deacetylase HDAC10 (Homo sapiens, UniProt Q969S8)
T1 sequence (Q969S8 whole entry): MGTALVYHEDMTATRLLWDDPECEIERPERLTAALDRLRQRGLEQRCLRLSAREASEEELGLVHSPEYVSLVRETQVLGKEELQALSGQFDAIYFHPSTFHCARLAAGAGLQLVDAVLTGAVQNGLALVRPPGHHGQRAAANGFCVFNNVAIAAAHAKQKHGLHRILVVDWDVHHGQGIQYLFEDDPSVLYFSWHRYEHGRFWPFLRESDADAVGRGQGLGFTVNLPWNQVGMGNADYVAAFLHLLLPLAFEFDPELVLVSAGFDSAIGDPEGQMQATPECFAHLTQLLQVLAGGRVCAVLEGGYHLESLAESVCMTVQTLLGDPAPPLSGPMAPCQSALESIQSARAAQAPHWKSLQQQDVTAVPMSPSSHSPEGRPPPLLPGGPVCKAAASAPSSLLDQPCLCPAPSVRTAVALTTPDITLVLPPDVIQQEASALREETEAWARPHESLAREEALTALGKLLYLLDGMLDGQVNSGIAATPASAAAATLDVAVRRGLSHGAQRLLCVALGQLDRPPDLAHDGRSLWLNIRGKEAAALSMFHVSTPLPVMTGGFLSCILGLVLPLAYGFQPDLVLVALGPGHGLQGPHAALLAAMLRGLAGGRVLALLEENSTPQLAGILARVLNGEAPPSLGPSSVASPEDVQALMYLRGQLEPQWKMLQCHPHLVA
Assay: Inhibition of HDAC10 (unknown origin) using p53 residues (379 to 382)(RHKK(Ac)-AMC) as substrate by fluorescent method

pIC50: < 5.00
Structure (SMILES): Cn1cc(-c2ccc(S(=O)(=O)n3ccc(/C=C/C(=O)Nc4ccccc4N)c3)cc2)cn1 [DOMATINOSTAT]
